Results reported in patent US7087768B2, “Fumagillol derivatives and preparing method thereof” (Equispharm Co., Ltd., priority 2001, dated 2006).
Values after ≈ are worked out from the molar mass of the structure shown.

Test system: HUVECs (human umbilical vein endothelial cells)
Test: Inhibitory effect of fumagillol derivative on HUVEC cell growth (colorimetry)
Assay type: cell-based
Conditions: Homo sapiens, HUVEC, HUVEC growth, cultured 2–3 days with compound, absorption at 490 nm; read-out: IC50
Method: Using the HUVECs (human umbilical vein endothelial), the effect of the fumagillol derivative of the present invention on cell growth was evaluated.
The HUVECs were added to M199 medium supplemented with 20% FBS (fetal bovine serum), 100 U/ml penicillin, 100 μg/ml streptomycin, 1.5 g/L sodium bicarbonate, 0.1 mg/ml endothelial cell growth supplement (Sigma) and 0.1 mg/ml heparin (Sigma), after which the cells were incubated in an incubator at 37° C. under 5% CO2. Cells were subcultured a maximum of 8 times before being discarded.
In order to evaluate inhibitory activity of the fumagillin derivative on growth of HUVECs, the inventive compound was dissolved in DMSO and its concentration was adjusted from 10 mM to 1 mM. Cells were aliquotted to 96 well plates at a density of 2×10^3 cells per well and incubated for about 12–24 hours to be properly attached to the plate. Thereafter, the medium was replaced with new medium. The cells were treated with the compound obtained from each of the above examples at various concentration ranges of from 10 μM to […], and cultured for 2–3 days, followed by removing 100 μl of the medium from each well.
Colorimetry was performed to determine the extent of cell growth. The cells on each plate was added with 20 μl of aqueous one solution and then incubated at 37° C. under 5% CO2 for 2 hours. Using a 96-well plate reader, absorption was measured at 490 nm.
As such, a conventional TNP-470 having angiogenesis inhibitory effect was used as a control.

Question: `CO[C@@H]1[C@H](OC(=O)CNc2ccc(OCC(C)C)cc2)CC[C@]2(CO2)[C@H]1[C@@]1(C)OC1CC=C(C)C` (some centres unmarked) [Ex. 11] was tested. Which IC50 did it give?
Answer: The IC50 was 0.08 ng/mL (≈ 0.164 nM).

Question: Which IC50 does the source give for `CO[C@@H]1C(OC(=O)CNC2CC2)CC[C@](O)(CCl)[C@H]1C1(C)OC1CC=C(C)C` (stereo in doubt) [Ex. 78, 4-((cyclopropylamino)acetyl)oxy-2-(1,2-epoxy-1,5-dimethyl-4-hexenyl)-3-methoxy-1-chloromethyl-1-cyclohexanol] here?
Answer: The IC50 was 0.014 ng/mL (≈ 0.0337 nM).

Question: For `CCC(C)CNCC(=O)O[C@@H]1CC[C@]2(CO2)[C@@H]([C@@]2(C)OC2CC=C(C)C)[C@@H]1OC` (some centres unmarked) [Ex. 46, 6-O-(2-methyl-butylamino)acetyl fumagillol], which IC50 is on record?
Answer: The IC50 was 2600 ng/mL (≈ 6350 nM).

Question: `CO[C@@H]1[C@H](OC(=O)CNCC(C)(C)OC)CC[C@]2(CO2)[C@H]1[C@@]1(C)OC1CC=C(C)C` (some centres unmarked) [Ex. 70, 6-O-(2-methoxy-2-methyl-propylamino)acetyl fumagillol] was tested. Which IC50 did it give?
Answer: The IC50 was 178 ng/mL (≈ 418 nM).

Question: For `CO[C@@H]1[C@H](OC(=O)NC(=O)CCl)CC[C@]2(CO2)[C@H]1[C@@]1(C)O[C@@H]1CC=C(C)C` [TNP-470, reference compound], which IC50 is on record?
Answer: Its IC50 is 29 ng/mL (≈ 72.2 nM).

Question: For `CO[C@@H]1[C@H](OC(=O)CNC2CCC(C(C)(C)C)CC2)CC[C@]2(CO2)[C@H]1[C@@]1(C)OC1CC=C(C)C` (some centres unmarked) [Ex. 67, 6-O-(4-tert-butyl-cyclohexylamino)acetyl fumagillol], which IC50 is on record?
Answer: Its IC50 is 0.06 ng/mL (≈ 0.126 nM).

Question: With `CO[C@@H]1[C@H](OC(=O)CNC2CCCCC2)CC[C@]2(CO2)[C@H]1[C@@]1(C)OC1CC=C(C)C` (some centres unmarked) [Ex. 66, 6-O-(cyclohexylamino)acetyl fumagillol] as the compound, how does the IC50 read?
Answer: The IC50 was 0.6 ng/mL (≈ 1.42 nM).

Question: For `COc1ccc(NCC(=O)O[C@@H]2CC[C@]3(CO3)[C@@H]([C@@]3(C)OC3CC=C(C)C)[C@@H]2OC)c(OC)c1OC` (some centres unmarked) [Ex. 25], which IC50 is on record?
Answer: The IC50 was 0.31 ng/mL (≈ 0.613 nM).

Question: For `COc1ccc(NCC(=O)O[C@@H]2CC[C@]3(CO3)[C@@H]([C@@]3(C)OC3CC=C(C)C)[C@@H]2OC)cc1C#N` (some centres unmarked) [Ex. 9, 6-O-(3-cyano-4-methoxyaniline)acetyl fumagillol], which IC50 is on record?
Answer: The IC50 was 0.63 ng/mL (≈ 1.34 nM).

Question: How did the IC50 turn out when `COc1ccc(NCC(=O)O[C@@H]2CC[C@]3(CO3)[C@@H]([C@@]3(C)OC3CC=C(C)C)[C@@H]2OC)cn1` (some centres unmarked) [Ex. 36, 6-O-(5-amino-2-methoxypyridine)acetyl fumagillol] was run?
Answer: Its IC50 is 0.021 ng/mL (≈ 0.047 nM).

Question: With `CCCCC(C)NCC(=O)O[C@@H]1CC[C@]2(CO2)[C@@H]([C@@]2(C)OC2CC=C(C)C)[C@@H]1OC` (some centres unmarked) [Ex. 51, 6-O-(1-methyl-pentylamino)acetyl fumagillol] as the compound, how does the IC50 read?
Answer: Its IC50 is 32000 ng/mL (≈ 75500 nM).

Question: With `COc1ccc(NCC(=O)O[C@@H]2CC[C@]3(CO3)[C@@H]([C@@]3(C)OC3CC=C(C)C)[C@@H]2OC)c(OC)c1` (some centres unmarked) [Ex. 3, 6-O-(2,4-dimethoxyaniline)acetyl fumagillol] as the compound, how does the IC50 read?
Answer: The IC50 was 0.09 ng/mL (≈ 0.189 nM).

Question: For `COc1ccc(NCC(=O)O[C@@H]2CC[C@]3(CO3)[C@@H]([C@@]3(C)OC3CC=C(C)C)[C@@H]2OC)cc1OC(C)C` (some centres unmarked) [Ex. 12, 6-O-(3-isopropoxy-4-methoxyaniline)acetyl fumagillol], which IC50 is on record?
Answer: The IC50 was 0.07 ng/mL (≈ 0.139 nM).

Question: For `CO[C@@H]1[C@H](OC(=O)CNC(C)C(C)(C)C)CC[C@]2(CO2)[C@H]1[C@@]1(C)OC1CC=C(C)C` (some centres unmarked) [Ex. 53, 6-O-(1,2,2-trimethylpropylamino)acetyl fumagillol], which IC50 is on record?
Answer: The IC50 was 162 ng/mL (≈ 382 nM).

Question: Which IC50 does the source give for `CO[C@@H]1[C@H](OC(=O)CNc2ccc(OCCO)cc2)CC[C@]2(CO2)[C@H]1[C@@]1(C)OC1CC=C(C)C` (some centres unmarked) [Ex. 35, 6-O-(4-hydroxyethoxyaniline)acetyl fumagillol] here?
Answer: Its IC50 is 116 ng/mL (≈ 244 nM).

Question: How did the IC50 turn out when `COc1cc(NCC(=O)O[C@@H]2CC[C@]3(CO3)[C@@H]([C@@]3(C)OC3CC=C(C)C)[C@@H]2OC)cc(O)c1OC` (some centres unmarked) [Ex. 27, 6-O-(3,4-dimethoxy-5-hydroxyaniline)acetyl fumagillol] was run?
Answer: Its IC50 is 88 ng/mL (≈ 179 nM).

Question: With `CCC(C)NCC(=O)O[C@@H]1CC[C@]2(CO2)[C@@H]([C@@]2(C)OC2CC=C(C)C)[C@@H]1OC` (some centres unmarked) [Ex. 45, 6-O-(sec-butylamino)acetyl fumagillol] as the compound, how does the IC50 read?
Answer: The IC50 was 370 ng/mL (≈ 935 nM).

Question: Which IC50 does the source give for `CO[C@@H]1[C@H](OC(=O)CNC(C)CN(C)C)CC[C@]2(CO2)[C@H]1[C@@]1(C)OC1CC=C(C)C` (some centres unmarked) [Ex. 68, 6-O-(2-dimethylamino-1-methylethylamino)acetyl fumagillol] here?
Answer: Its IC50 is 240 ng/mL (≈ 565 nM).

Question: `CCOC(=O)CNCC(=O)O[C@@H]1CC[C@]2(CO2)[C@@H]([C@@]2(C)OC2CC=C(C)C)[C@@H]1OC` (some centres unmarked) [Ex. 73, 6-O-(ethyl-2-aminoacetate)acetyl fumagillol] was tested. Which IC50 did it give?
Answer: The IC50 was 1200 ng/mL (≈ 2820 nM).

Question: With `CO[C@@H]1[C@H](OC(=O)CNc2ccc(OC(C)=O)cc2)CC[C@]2(CO2)[C@H]1[C@@]1(C)OC1CC=C(C)C` (some centres unmarked) [Ex. 33, 6-O-(4-acetoxyaniline)acetyl fumagillol] as the compound, how does the IC50 read?
Answer: Its IC50 is 109 ng/mL (≈ 230 nM).

Question: For `CO[C@@H]1C(OC(=O)CNC2CCC2)CC[C@](O)(CCl)[C@H]1C1(C)OC1CC=C(C)C` (stereo in doubt) [Ex. 79, 4-((cyclobutylamino)acetyl)oxy-2-(1,2-epoxy-1,5-dimethyl-4-hexenyl)-3-methoxy-1-chloromethyl-1-cyclohexanol], which IC50 is on record?
Answer: The IC50 was 0.037 ng/mL (≈ 0.086 nM).

Question: How did the IC50 turn out when `CO[C@@H]1[C@H](OC(=O)CNC(C)(C)CC(C)=O)CC[C@]2(CO2)[C@H]1[C@@]1(C)OC1CC=C(C)C` (some centres unmarked) [Ex. 72, 6-O-(1,1-dimethyl-3-oxobutylamino)acetyl fumagillol] was run?
Answer: The IC50 was 330 ng/mL (≈ 754 nM).

Question: Which IC50 does the source give for `CO[C@@H]1[C@H](OC(=O)CNc2ccc(O)cc2)CC[C@]2(CO2)[C@H]1[C@@]1(C)OC1CC=C(C)C` (some centres unmarked) [Ex. 21, 6-O-(4-hydroxyaniline)acetyl fumagillol] here?
Answer: Its IC50 is 185 ng/mL (≈ 429 nM).

Question: `CO[C@@H]1[C@H](OC(=O)CNC2CC2)CC[C@]2(CO2)[C@H]1[C@@]1(C)OC1CC=C(C)C` (some centres unmarked) [Ex. 63, 6-O-(cyclopropylamino)acetyl fumagillol] was tested. Which IC50 did it give?
Answer: Its IC50 is 0.008 ng/mL (≈ 0.0211 nM).

Question: With `C=CCOc1ccc(NCC(=O)O[C@@H]2CC[C@]3(CO3)[C@@H]([C@@]3(C)OC3CC=C(C)C)[C@@H]2OC)cc1` (some centres unmarked) [Ex. 7, 6-O-(4-allyloxyaniline)acetyl fumagillol] as the compound, how does the IC50 read?
Answer: The IC50 was 21 ng/mL (≈ 44.5 nM).

Question: With `CO[C@@H]1[C@H](OC(=O)CNC2CCC2)CC[C@]2(CO2)[C@H]1[C@@]1(C)OC1CC=C(C)C` (some centres unmarked) [Ex. 64, 6-O-(cyclobutylamino)acetyl fumagillol] as the compound, how does the IC50 read?
Answer: The IC50 was 0.07 ng/mL (≈ 0.178 nM).

Question: With `CNCCOc1ccc(NCC(=O)O[C@@H]2CC[C@]3(CO3)[C@@H]([C@@]3(C)OC3CC=C(C)C)[C@@H]2OC)cc1` (some centres unmarked) [Ex. 30, 6-O-(4-ethylaminoethoxyaniline)acetyl fumagillol] as the compound, how does the IC50 read?
Answer: The IC50 was 0.09 ng/mL (≈ 0.184 nM).

Question: Which IC50 does the source give for `COc1ccc(NCC(=O)O[C@@H]2CC[C@]3(CO3)[C@@H]([C@@]3(C)OC3CC=C(C)C)[C@@H]2OC)nn1` (some centres unmarked) [Ex. 38, 6-O-(3-methoxy-6-aminopyridazine)acetyl fumagillol] here?
Answer: The IC50 was 0.019 ng/mL (≈ 0.0425 nM).

Question: `COc1c(C(C)C)cc(NCC(=O)O[C@@H]2CC[C@]3(CO3)[C@@H]([C@@]3(C)OC3CC=C(C)C)[C@@H]2OC)cc1C(C)C` (some centres unmarked) [Ex. 14, 6-O-(3,5-diisopropyl-4-methoxyaniline)acetyl fumagillol] was tested. Which IC50 did it give?
Answer: Its IC50 is 14 ng/mL (≈ 26.4 nM).

Same assay, conditions: Homo sapiens; HUVEC growth, cultured 2–3 days with compound, absorption at 490 nm; read-out: IC50

Question: For `CO[C@@H]1[C@H](OC(=O)CNC(C(C)C)C(C)C)CC[C@]2(CO2)[C@H]1[C@@]1(C)OC1CC=C(C)C` (some centres unmarked) [Ex. 54, 6-O-(1-isopropyl-2-methylpropylamino)acetyl fumagillol], which IC50 is on record?
Answer: The IC50 was 11 ng/mL (≈ 25.1 nM).

Question: How did the IC50 turn out when `C=C(C)CNCC(=O)O[C@@H]1CC[C@]2(CO2)[C@@H]([C@@]2(C)OC2CC=C(C)C)[C@@H]1OC` (some centres unmarked) [Ex. 56, 6-O-(2-methyl-allylamino)acetyl fumagillol] was run?
Answer: The IC50 was 28 ng/mL (≈ 71.2 nM).

Question: `COc1cnc(NCC(=O)O[C@@H]2CC[C@]3(CO3)[C@@H]([C@@]3(C)OC3CC=C(C)C)[C@@H]2OC)nc1` (some centres unmarked) [Ex. 37, 6-O-(5-methoxypyrimidine-2-amino)acetyl fumagillol] was tested. Which IC50 did it give?
Answer: The IC50 was 0.017 ng/mL (≈ 0.038 nM).
